This passage reports EC50 results from patent US11149036B2, “3-(1H-pyrazol-4-yl)pyridine allosteric modulators of the M4 muscarinic acetylcholine receptor” (Merck Sharp & Dohme Corp., priority 2017, dated 2021).

For the experiment, the target named is T1, human M4 muscarinic acetylcholine receptor (Homo sapiens, UniProt P08173).
T1 construct: expressed in transfected cells; host or cells: CHO-K1
T1 sequence (P08173 1-479): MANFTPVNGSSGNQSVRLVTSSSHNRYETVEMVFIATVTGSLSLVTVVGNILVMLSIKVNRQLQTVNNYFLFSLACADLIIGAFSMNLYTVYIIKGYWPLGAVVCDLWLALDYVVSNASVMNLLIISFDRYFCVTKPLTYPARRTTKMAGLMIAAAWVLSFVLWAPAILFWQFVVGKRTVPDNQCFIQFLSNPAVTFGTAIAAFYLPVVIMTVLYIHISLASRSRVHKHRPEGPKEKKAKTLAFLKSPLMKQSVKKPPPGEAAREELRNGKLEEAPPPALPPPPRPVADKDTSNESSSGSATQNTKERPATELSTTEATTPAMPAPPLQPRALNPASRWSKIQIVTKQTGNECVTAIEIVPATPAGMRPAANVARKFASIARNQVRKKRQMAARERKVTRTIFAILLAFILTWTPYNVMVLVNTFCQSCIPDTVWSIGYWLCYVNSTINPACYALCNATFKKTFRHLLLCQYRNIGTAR
In words: human FLIPR-based M4 PAM assay (CHO-K1 cells with human M4 receptor and Gaqi5, calcium dye fluorescence). The experiment is classed as cell-based. To be noted: inflection point (IP) of dose response curve, acetylcholine added at 20% of maximum response, read-out: M4 FLIPPR Hu IP. Summed up: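 CHO-K1 cells stably expressing human M4 with chimeric Gaqi5, calcium-dye loaded ~1 h at 37° C; compound added at increasing concentrations 4 min before acetylcholine at an EC20 concentration (sometimes a further EC70 addition).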
For the compound `CC1(Cn2cc(-c3ccc(C#N)nc3-c3ccc4cc(CO)nnc4c3)cn2)CCCC1` [Example 163, 6-(3-(hydroxymethyl)cinnolin-7-yl)-5-(1-((1-methylcyclopentyl)methyl)-1H-pyrazol-4-yl)picolinonitrile], the EC50 is 46 nM.

As for `Cn1cc2ccc(-c3nc(C#N)ccc3-c3cnn(CC4(F)CCCC4)c3)cc2n1` [Example 48, 5-(1-((1-fluorocyclopentyl)methyl)-1H-pyrazol-4-yl)-6-(2-methyl-2H-indazol-6-yl)picolinonitrile], the EC50 was 41 nM.

Consider `Cn1cnc2cc(-c3nc(C#N)ccc3-c3cnn(C[C@@H]4CC[C@@H](F)C4)c3)ccc21` [Example 70, 5-(1-(((1R,3R)-3-fluorocyclopentyl)methyl)-1H-pyrazol-4-yl)-6-(1-methyl-1H-benzo[d]imidazol-5-yl)picolinonitrile], for which the EC50 stood at 49 nM.

Consider `Cc1nc(-c2cnc3c(c2)ncn3C)c(-c2cnn(CC3(C)CCCC3)c2)cc1C#N` [Example 106, 2-methyl-6-(3-methyl-3H-imidazo[4,5-b]pyridin-6-yl)-5-(1-((1-methylcyclopentyl)methyl)-1H-pyrazol-4-yl)nicotinonitrile], for which the EC50 was found to be 82 nM.

Take `Cc1ccc(-c2cnn(CC3CCCC3)c2)c(-c2ccc3oc(C)nc3c2)n1` [Example 11, 5-(3-(1-(cyclopentylmethyl)-1H-pyrazol-4-yl)-6-methylpyridin-2-yl)-2-methylbenzo[d]oxazole]: the EC50 came out at 46 nM.

Take `Cc1ccc(-c2cnn(C[C@H]3CC[C@H](F)C3)c2)c(-c2ccc3cccnc3c2)n1` (single isomer, unassigned) [Example 131, 7-(3-(1-(((1S,3S) or (1R,3R)-3-fluorocyclopentyl)methyl)-1H-pyrazol-4-yl)-6-methylpyridin-2-yl)quinoline]: the EC50 turned out to be 31 nM.

Turning to `CC1(Cn2ncc(-c3ccc(C#N)nc3-c3ccn4ccnc4c3)c2Cl)CCCC1` [Example 81, 5-(5-chloro-1-((1-methylcyclopentyl)methyl)-1H-pyrazol-4-yl)-6-(imidazo[1,2-a]pyridin-7-yl)picolinonitrile], the EC50 came out at 82 nM.

Consider `Cc1ccc(-c2cnn(CC3CCCC3)c2)c(-c2ccc3cc(N)nnc3c2)n1` [Example 158, 7-(3-(1-(cyclopentylmethyl)-1H-pyrazol-4-yl)-6-methylpyridin-2-yl)cinnolin-3-amine], for which the EC50 is 19 nM.

For the compound `COc1cc2ccc(-c3nc(C)ccc3-c3cnn(CC4CC5C(C4)C5(F)F)c3)cc2nn1` (stereo not drawn) [Example 37, 7-(3-(1-((6,6-difluorobicyclo[3.1.0]hexan-3-yl)methyl)-1H-pyrazol-4-yl)-6-methylpyridin-2-yl)-3-methoxycinnoline], the EC50 was determined as 51 nM.

Take `Cc1ccc(-c2nc(C)ccc2-c2cnn(CC3CCCC3)c2)cc1` [Example 6, 3-(1-(cyclopentylmethyl)-1H-pyrazol-4-yl)-6-methyl-2-(p-tolyl)pyridine]: the EC50 came to 72 nM.

For `CC1(Cn2cc(-c3ccc(C#N)nc3-c3ccn4cc(CO)nc4c3)cn2)CCCC1` [Example 82, 6-(2-(hydroxymethyl)imidazo [1,2-a]pyridin-7-yl)-5-(1-((1-methylcyclopentyl)methyl)-1H-pyrazol-4-yl)picolinonitrile], the EC50 is 20 nM.

On to `Cc1ccc(-c2cnn(CC34CCC(CC3)C4)c2)c(-c2ccc3cccnc3c2)n1` [Example 26, 7-(3-(1-(bicyclo[2.2.1]heptan-1-ylmethyl)-1H-pyrazol-4-yl)-6-methylpyridin-2-yl)quinoline], for which the EC50 came to 10 nM.

Turning to `Cc1cc(-c2cnn(CC3(F)CCCC3)c2)c(-c2cnc3c(c2)ncn3C)nc1C#N` [Example 142, 5-(1-((1-fluorocyclopentyl)methyl)-1H-pyrazol-4-yl)-3-methyl-6-(3-methyl-3H-imidazo[4,5-b]pyridin-6-yl)picolinonitrile], the EC50 amounted to 104 nM.

`Cc1ccc(-c2cnn(CC3C[C@H](F)[C@@H](F)C3)c2)c(-c2ccc3cccnc3c2)n1` (racemic) [Example 29, 7-(3-(1-(((3S,4S and 3R,4R)-3,4-difluorocyclopentyl)methyl)-1H-pyrazol-4-yl)-6-methylpyridin-2-yl)quinoline]: the EC50 is 39 nM.

With `Cn1c(Cl)nc2cc(-c3nc(C#N)ccc3-c3cnn(CC4(C)CCCC4)c3)ccc21` [Example 154, 6-(2-chloro-1-methyl-1H-benzo[d]imidazol-5-yl)-5-(1-((1-methylcyclopentyl)methyl)-1H-pyrazol-4-yl)picolinonitrile], the EC50 was 44 nM.

As for `N#Cc1ccc(-c2cnn(CC3(F)CCCC3)c2)c(-c2cnc3oc(C4CC4)nc3c2)n1` [Example 53, 6-(2-cyclopropyloxazolo[5,4-b]pyridin-6-yl)-5-(1-((1-fluorocyclopentyl)methyl)-1H-pyrazol-4-yl)picolinonitrile], the EC50 amounted to 76 nM.

Turning to `Cn1cnc2cc(-c3nc(C(F)F)ccc3-c3cnn(CC4(F)CCCC4)c3)cnc21` [Example 108, 6-(6-(difluoromethyl)-3-(1-((1-fluorocyclopentyl)methyl)-1H-pyrazol-4-yl)pyridin-2-yl)-3-methyl-3H-imidazo[4,5-b] pyridine], the EC50 worked out at 86 nM.

`Cc1ccc(-c2cnn(CC3CCCC3)c2)c(-c2ccc3cc(I)nnc3c2)n1` [Example 159, 7-(3-(1-(cyclopentylmethyl)-1H-pyrazol-4-yl)-6-methylpyridin-2-yl)-3-iodocinnoline]: the EC50 worked out at 14 nM.

Regarding `N#Cc1ccc(-c2cnn(CC3(F)CCCC3)c2)c(-c2ccn3cc(C4CC4)nc3c2)n1` [Example 54, 6-(2-cyclopropylimidazo[1,2-a]pyridin-7-yl)-5-(1-((1-fluorocyclopentyl)methyl)-1H-pyrazol-4-yl)picolinonitrile], the EC50 was determined as 36 nM.

On to `Cc1ccc(-c2cnn(CC3(F)CCCC3)c2)c(-c2ccc3c(c2)C(=O)N(C2CC2)C3)n1` [Example 20, 2-cyclopropyl-6-(3-(1-((1-fluorocyclopentyl)methyl)-1H-pyrazol-4-yl)-6-methylpyridin-2-yl)isoindolin-1-one], for which the EC50 came out at 24 nM.

For the compound `CC1(Cn2cc(-c3ccc(C#N)nc3-c3ccc4cc(CF)nnc4c3)cn2)CCCC1` [Example 164, 6-(3-(fluoromethyl)cinnolin-7-yl)-5-(1-((1-methylcyclopentyl)methyl)-1H-pyrazol-4-yl)picolinonitrile], the EC50 was 85 nM.

Regarding `N#Cc1ccc(-c2cnn(CC3(F)CCCC3)c2)c(-c2ccn3cnnc3c2)n1` [Example 42, 6-([1,2,4]triazolo[4,3-a]pyridin-7-yl)-5-(1-((1-fluorocyclopentyl)methyl)-1H-pyrazol-4-yl)picolinonitrile], the EC50 was 32 nM.

On to `COc1cc2ccc(-c3nc(C)ccc3-c3cnn(CC4(C)CCC(=O)C4)c3)cc2nn1` (single isomer, unassigned) [Example 148, (S or R)-3-((4-(2-(3-methoxycinnolin-7-yl)-6-methylpyridin-3-yl)-1H-pyrazol-1-yl)methyl)-3-methylcyclopentan-1-one], for which the EC50 was 67 nM.

With `N#Cc1nc(-c2ccn3cc(C(F)(F)F)nc3c2)c(-c2cnn(CC3(F)CCCC3)c2)cc1F` [Example 91, 3-fluoro-5-(1-((1-fluorocyclopentyl)methyl)-1H-pyrazol-4-yl)-6-(2-(trifluoromethyl)imidazo [1,2-a]pyridin-7-yl)picolinonitrile], the EC50 amounted to 33 nM.
